The nature of series [1]: The drug is tested on Z-019 corresponding to rat gut metagenome with ENA study accession number: PRJEB37062 and ENA sample accession number: ERS12561818 for biotransformation under anaerobic condition. The drug concentrations were measured over 9 timepoints collected between 0 and 24 hours of incubation by liquid-chromatography-coupled mass spectrometry (LC–MS). The conditions noted are these: 2 µM.

Series [2] in a line: The drug is tested on Z-017 corresponding to mouse gut metagenome with ENA study accession number: PRJEB37062 and ENA sample accession number: ERS12561816 for biotransformation under anaerobic condition. The drug concentrations were measured over 9 timepoints collected between 0 and 24 hours of incubation by liquid-chromatography-coupled mass spectrometry (LC–MS). The conditions noted are these: 2 µM.

The nature of series [3]: The drug is tested on Z-007 corresponding to rat gut metagenome with ENA study accession number: PRJEB37062 and ENA sample accession number: ERS12561807 for biotransformation under anaerobic condition. The drug concentrations were measured over 9 timepoints collected between 0 and 24 hours of incubation by liquid-chromatography-coupled mass spectrometry (LC–MS). The conditions noted are these: 2 µM.

Series [4] is described as follows: The drug is tested on Z-003 corresponding to pig gut metagenome with ENA study accession number: PRJEB37062 and ENA sample accession number: ERS12561803 for biotransformation under anaerobic condition. The drug concentrations were measured over 9 timepoints collected between 0 and 24 hours of incubation by liquid-chromatography-coupled mass spectrometry (LC–MS). The conditions noted are these: 2 µM.

A short description of series [5]: The drug is tested on Z-002 corresponding to rabbit gut metagenome with ENA study accession number: PRJEB37062 and ENA sample accession number: ERS12561802 for biotransformation under anaerobic condition. The drug concentrations were measured over 9 timepoints collected between 0 and 24 hours of incubation by liquid-chromatography-coupled mass spectrometry (LC–MS). The conditions noted are these: 2 µM.

The nature of series [6]: The drug is tested on WLS-240 corresponding to human gut metagenome with ENA study accession number: PRJEB37062 and ENA sample accession number: ERS12561773 for biotransformation under anaerobic condition. The drug concentrations were measured over 9 timepoints collected between 0 and 24 hours of incubation by liquid-chromatography-coupled mass spectrometry (LC–MS). The conditions noted are these: 2 µM.

A short description of series [7]: The drug is tested on WLS-098 corresponding to human gut metagenome with ENA study accession number: PRJEB37062 and ENA sample accession number: ERS12561754 for biotransformation under anaerobic condition. The drug concentrations were measured over 9 timepoints collected between 0 and 24 hours of incubation by liquid-chromatography-coupled mass spectrometry (LC–MS). The conditions noted are these: 2 µM.

Series [8] in a line: The drug is tested on WLS-073 corresponding to human gut metagenome with ENA study accession number: PRJEB37062 and ENA sample accession number: ERS12561749 for biotransformation under anaerobic condition. The drug concentrations were measured over 9 timepoints collected between 0 and 24 hours of incubation by liquid-chromatography-coupled mass spectrometry (LC–MS). The conditions noted are these: 2 µM.

Series [9] can be described thus: The drug is tested on WLS-069 corresponding to human gut metagenome with ENA study accession number: PRJEB37062 and ENA sample accession number: ERS12561748 for biotransformation under anaerobic condition. The drug concentrations were measured over 9 timepoints collected between 0 and 24 hours of incubation by liquid-chromatography-coupled mass spectrometry (LC–MS). The conditions noted are these: 2 µM.

For series [10] the following is noted: human gut metagenome, 24 h, 2 µM.
For series [11] the following is noted: human gut metagenome, 24 h, 2 µM. This is another data set of the same source.
For series [12] the following is noted: human gut metagenome, 24 h, 2 µM. This is another data set of the same source.
The conditions of series [13]: human gut metagenome, 24 h, 2 µM. The source holds these as a separate data set.
For series [14] the following is noted: human gut metagenome, 24 h, 2 µM. The source holds these as a separate data set.
The conditions of series [15]: human gut metagenome, 24 h, 2 µM. The source holds these as a separate data set.
For series [16] the following is noted: human gut metagenome, 24 h, 2 µM. The source holds these as a separate data set.
The conditions of series [17]: human gut metagenome, 24 h, 2 µM. This is another data set of the same source.
For series [18] the following is noted: human gut metagenome, 24 h, 2 µM. The source holds these as a separate data set.
The conditions of series [19]: human gut metagenome, 24 h, 2 µM. The source holds these as a separate data set.
For series [20] the following is noted: human gut metagenome, 24 h, 2 µM. This is another data set of the same source.

The record followed here is ChEMBL document CHEMBL5724914, “Linking interpersonal differences in gut microbiota composition and drug biotransformation activity” (2024).

Each structure is given as a SMILES string.
Further: call rule not given here.

Consider `COC(=O)C(c1ccccc1)C1CCCCN1` (stereo not drawn) [METHYLPHENIDATE], for which the “Bacterial Biotransformation” value in series [1] is reported as “Compound NOT metabolized”; in series [2], “Compound NOT metabolized”; in series [3] it was “Compound NOT metabolized”; in [4] it was “Compound metabolized”; in series [5] it was “Compound metabolized”; in [6], “Compound metabolized”. For the same compound, the “Bacterial Biotransformation” value in [7], in [8], in series [9], in series [10], in [11] and in [12] was “Compound NOT metabolized” each time. The “Bacterial Biotransformation” value was “Compound NOT metabolized” in series [13]; “Compound metabolized” in [14]; “Compound NOT metabolized” in [15]; “Compound metabolized” in series [16]; “Compound metabolized” in [17]; “Compound metabolized” in [18]. The “Bacterial Biotransformation” value in series [19] and in series [20] was “Compound NOT metabolized” in each case.

On to `COC1=C(OC)C(=O)C(CCCCCCCCCCO)=C(C)C1=O` [IDEBENONE], for which the “Bacterial Biotransformation” value in series [1] is listed as “Compound NOT metabolized”; in series [2] it was “Compound NOT metabolized”; in series [3], “Compound metabolized”; in series [4] it was “Compound metabolized”; in series [5], “Compound metabolized”; in series [8], “Compound metabolized”. Besides, the “Bacterial Biotransformation” value in [9] is “Compound metabolized”; in [11], “Compound metabolized”; in series [12], “Compound NOT metabolized”; in series [15] it was “Compound metabolized”; in series [16], “Compound metabolized”; in series [18], “Compound metabolized”.

`CC(=O)O[C@H]1C(=O)[C@@]2(C)[C@H]([C@H](OC(=O)c3ccccc3)[C@]3(O)C[C@H](OC(=O)[C@H](O)[C@@H](NC(=O)c4ccccc4)c4ccccc4)C(C)=C1C3(C)C)[C@]1(OC(C)=O)CO[C@@H]1C[C@@H]2O` [PACLITAXEL]: the “Bacterial Biotransformation” value in series [1] is on record as “Compound NOT metabolized”; in series [2], “Compound NOT metabolized”; in series [3], “Compound NOT metabolized”; in series [4], “Compound metabolized”; in series [5], “Compound metabolized”; in series [6] it was “Compound NOT metabolized”. Besides, the “Bacterial Biotransformation” value in [7] is recorded as “Compound NOT metabolized”; in series [8] it was “Compound metabolized”; in [9], “Compound metabolized”; in series [12], “Compound NOT metabolized”; in [13] it was “Compound metabolized”; in series [14] it was “Compound NOT metabolized”. Further, the “Bacterial Biotransformation” value is “Compound NOT metabolized” in [15]; “Compound NOT metabolized” in series [16]; “Compound NOT metabolized” in series [17]; “Compound NOT metabolized” in [18]; “Compound metabolized” in [19]; “Compound NOT metabolized” in series [20].

As for `CC(C)C[C@H]1C(=O)N2CCC[C@H]2[C@]2(O)O[C@](NC(=O)[C@@H]3C=C4c5cccc6[nH]c(Br)c(c56)C[C@H]4N(C)C3)(C(C)C)C(=O)N12.CS(=O)(=O)O` [BROMOCRIPTINE MESYLATE], the “Bacterial Biotransformation” value in series [1] is recorded as “Compound metabolized”; in series [2] it was “Compound metabolized”; in [3], “Compound metabolized”; in series [4], “Compound metabolized”; in series [5] it was “Compound metabolized”; in series [6], “Compound NOT metabolized”. For the same compound, the “Bacterial Biotransformation” value in series [7], in series [8], in [9], in series [10], in series [11] and in series [12] was “Compound metabolized” in each case. Further, the “Bacterial Biotransformation” value in series [14] is on record as “Compound metabolized”; in series [15], “Compound NOT metabolized”; in series [17] it was “Compound NOT metabolized”; in series [18], “Compound metabolized”; in [19], “Compound metabolized”; in series [20], “Compound metabolized”.

With `COc1cc(C(=O)NCc2ccc(OCCN(C)C)cc2)cc(OC)c1OC` [TRIMETHOBENZAMIDE], the “Bacterial Biotransformation” value in series [1], in [2], in series [3], in series [4], in series [5] and in series [6] was “Compound NOT metabolized” each time. Further, the “Bacterial Biotransformation” value in series [7], in series [8], in series [9], in series [10], in series [11] and in series [12] was “Compound NOT metabolized” in each case. In addition, the “Bacterial Biotransformation” value in [13], in [14], in series [15], in [17], in series [18] and in series [20] was “Compound NOT metabolized” each time.

Regarding `CCCCCNC(=N)N/N=C/c1c[nH]c2ccc(OC)cc12.O=C(O)/C=C\C(=O)O` [TEGASEROD MALEATE], the “Bacterial Biotransformation” value in [1], in series [2], in series [3], in series [4], in [5] and in series [6] was “Compound NOT metabolized” in each case. The “Bacterial Biotransformation” value in [7] is listed as “Compound NOT metabolized”; in series [8] it was “Compound metabolized”; in series [9], “Compound metabolized”; in series [11], “Compound metabolized”; in [12], “Compound NOT metabolized”; in series [13] it was “Compound NOT metabolized”. The “Bacterial Biotransformation” value in [14], in [15], in series [16], in series [17], in series [19] and in [20] was “Compound NOT metabolized” each time.

Take `CC(=O)Nc1ccc(OC(C)=O)cc1` [DIACETAMATE]: the “Bacterial Biotransformation” value in series [1], in series [2], in [3], in series [4], in series [5] and in series [6] was “Compound metabolized” each time. The “Bacterial Biotransformation” value in [7], in [8], in series [9], in series [10], in series [11] and in series [12] was “Compound metabolized” in each case. In addition, the “Bacterial Biotransformation” value in series [13], in [14], in [15], in [16], in series [17] and in series [18] was “Compound metabolized” throughout. The “Bacterial Biotransformation” value in series [20] is given as “Compound metabolized”.
